Like-named read-outs stand apart in the source and are kept apart here.
System: pediatric patients with advanced solid tumors
Details: for Leukopenia (treatment-related AE): laboratory values only
Experimental: This phase 1, multicenter, open-label study was conducted at a total of 8 study sites (3 study sites in the United States and 5 Innovative Therapies for Children with Cancer [ITCC] Consortium centers [2 in the United Kingdom and 3 in France]) between January 31, 2012, and the data cutoff, January 14, 2014 (ClinicalTrials.gov identifier NCT01431534; European Clinical Trials Database [EudraCT] number 2011-000729-55). An enteric-coated tablet formulation of ridaforolimus was orally administered for 5 consecutive days and not administered for 2 consecutive days per week in 28-day cycles until progression, unacceptable toxicity, or consent withdrawal. […] Dose escalation was conducted by using a modified toxicity probability intervals method that targeted a 30% DLT rate and started at 22 mg/m^2 (the equivalent of the adult RP2D [27], a 40-mg dose in adults with a BSA of 1.8 m^2). […] Dosing was adjusted based on BSA and rounded to the nearest 10-mg tablet. Patients were to be treated at sequentially rising dose levels until a preliminary MTD was identified.
Toxicity was graded according to the National Cancer Institute Common Terminology Criteria for Adverse Events, version 4.0 [42]. Safety data were reported for all patients who received at least 1 dose of the study drug. […] Once the RP2D of ridaforolimus was defined, an expansion cohort to be treated at the RP2D was planned to obtain additional safety, tolerability, and pharmacokinetic data.

## CO[C@H]1C[C@@H]2CC[C@@H](C)[C@@](O)(O2)C(=O)C(=O)N2CCCC[C@H]2C(=O)O[C@H]([C@H](C)C[C@@H]2CC[C@@H](OP(C)(C)=O)[C@H](OC)C2)CC(=O)[C@H](C)/C=C(\C)[C@@H](O)[C@@H](OC)C(=O)[C@H](C)C[C@H](C)/C=C/C=C/C=C/1C [ridaforolimus]
33 mg/m^2 n = 13, grades 3–4
  Increased alkaline phosphatase (treatment-related AE): 0 n (%)
  Increased bilirubin (treatment-related AE): 0 n (%)
  Increased γ-glutamyltransferase (treatment-related AE): 1 (8) n (%)
  Lymphopenia (treatment-related AE): 1 (8) n (%)
  Nausea (treatment-related AE): 0 n (%)
  Neutropenia (treatment-related AE): 1 (8) n (%)
  Oral herpes (treatment-related AE): 0 n (%)
  Patients with ≥1 treatment-related adverse event: 5 (38) n (%)
  Photophobia (treatment-related AE): 0 n (%)
  Rash (treatment-related AE): 0 n (%)
  Stomatitis (treatment-related AE): 0 n (%)
  Thrombocytopenia (treatment-related AE): 1 (8) n (%)
  Vomiting (treatment-related AE): 0 n (%)
  Leukopenia (treatment-related AE): 0 n (%)
Total N = 20, any grade
  Anemia (treatment-related AE): 8 (40) n (%)
  Decreased appetite (treatment-related AE): 2 (10) n (%)
  Decreased weight (treatment-related AE): 2 (10) n (%)
  Diarrhea (treatment-related AE): 2 (10) n (%)
  Dry mouth (treatment-related AE): 2 (10) n (%)
  Dysgeusia (treatment-related AE): 3 (15) n (%)
  Epistaxis (treatment-related AE): 2 (10) n (%)
  Fatigue (treatment-related AE): 9 (45) n (%)
  Headache (treatment-related AE): 3 (15) n (%)
  Hypercholesterolemia (treatment-related AE): 9 (45) n (%)
  Hyperglycemia (treatment-related AE): 2 (10) n (%)
  Hypertriglyceridemia (treatment-related AE): 10 (50) n (%)
  Hypocalcemia (treatment-related AE): 2 (10) n (%)
  Hypokalemia (treatment-related AE): 2 (10) n (%)
  Hypophosphatemia (treatment-related AE): 5 (25) n (%)
  Increased ALT (treatment-related AE): 10 (50) n (%)
  Increased AST (treatment-related AE): 8 (40) n (%)
  Increased alkaline phosphatase (treatment-related AE): 2 (10) n (%)
  Increased bilirubin (treatment-related AE): 2 (10) n (%)
  Increased γ-glutamyltransferase (treatment-related AE): 5 (25) n (%)
  Lymphopenia (treatment-related AE): 2 (10) n (%)
  Nausea (treatment-related AE): 6 (30) n (%)
  Neutropenia (treatment-related AE): 6 (30) n (%)
  Oral herpes (treatment-related AE): 2 (10) n (%)
  Patients with ≥1 treatment-related adverse event: 19 (95) n (%)
  Photophobia (treatment-related AE): 3 (15) n (%)
  Rash (treatment-related AE): 2 (10) n (%)
  Stomatitis (treatment-related AE): 15 (75) n (%)
  Thrombocytopenia (treatment-related AE): 13 (65) n (%)
  Vomiting (treatment-related AE): 3 (15) n (%)
  Leukopenia (treatment-related AE): 7 (35) n (%)
Total N = 20, grades 3–4
  Anemia (treatment-related AE): 0 n (%)
  Decreased appetite (treatment-related AE): 0 n (%)
  Decreased weight (treatment-related AE): 0 n (%)
  Diarrhea (treatment-related AE): 0 n (%)
  Dry mouth (treatment-related AE): 0 n (%)
  Dysgeusia (treatment-related AE): 0 n (%)
  Epistaxis (treatment-related AE): 0 n (%)
  Fatigue (treatment-related AE): 0 n (%)
  Headache (treatment-related AE): 0 n (%)
  Hypercholesterolemia (treatment-related AE): 1 (5) n (%)
  Hyperglycemia (treatment-related AE): 0 n (%)
  Hypertriglyceridemia (treatment-related AE): 1 (5) n (%)
  Hypocalcemia (treatment-related AE): 0 n (%)
  Hypokalemia (treatment-related AE): 0 n (%)
  Hypophosphatemia (treatment-related AE): 1 (5) n (%)
  Increased ALT (treatment-related AE): 5 (25) n (%)
  Increased AST (treatment-related AE): 1 (5) n (%)
  Increased alkaline phosphatase (treatment-related AE): 0 n (%)
  Increased bilirubin (treatment-related AE): 0 n (%)
  Increased γ-glutamyltransferase (treatment-related AE): 1 (5) n (%)
  Lymphopenia (treatment-related AE): 1 (5) n (%)
  Nausea (treatment-related AE): 0 n (%)
  Neutropenia (treatment-related AE): 1 (5) n (%)
  Oral herpes (treatment-related AE): 1 (5) n (%)
  Patients with ≥1 treatment-related adverse event: 9 (45) n (%)
  Photophobia (treatment-related AE): 0 n (%)
  Rash (treatment-related AE): 0 n (%)
  Stomatitis (treatment-related AE): 0 n (%)
  Thrombocytopenia (treatment-related AE): 2 (10) n (%)
  Vomiting (treatment-related AE): 0 n (%)
  Leukopenia (treatment-related AE): 0 n (%)
All patients, N = 20
  Anemia, treatment-related: 40%
  Fatigue, treatment-related: 45%
  Hypercholesterolemia, treatment-related: 45%
  Hypertriglyceridemia, treatment-related: 50%
  Increased ALT, treatment-related: 50%
  Increased aspartate aminotransferase (AST), treatment-related: 40%
  Leukopenia, treatment-related: 35%
  Nausea, treatment-related: 30%
  Neutropenia, treatment-related: 30%
  Patients with at least 1 treatment-related adverse event: 95%
  Serious adverse events related to study treatment: 15%
  Stomatitis, treatment-related: 75%
  Thrombocytopenia, treatment-related: 65%
  Treatment-related grade 3/4 increased ALT: 25%
  Treatment-related grade 3/4 thrombocytopenia: 10%
All patients, N = 20 (9 patients)
  Treatment-related grade 3/4 adverse events: 45%
All patients, N = 20 (12 patients), most disease related
  Serious adverse events: 60%
Dose level 3, 33 mg/m^2, cycle 1
  Time to DLT onset, days: 22 (cycle 1) days
Once daily 5 days/week
  Recommended phase 2 dose (RP2D) for oral ridaforolimus in children: 33 mg/m^2
Three deaths during the study
  Deaths / grade 5 adverse events related to ridaforolimus: No deaths were considered related to ridaforolimus

Source: article PMC5356695, “A phase 1 study of oral ridaforolimus in pediatric patients with advanced solid tumors” (Oncotarget, 2016)
